Results: EPA's ToxValDB 9.5 (doi:10.2903/j.efsa.2010.1868)
Values after ≈ are worked out from the molar mass of the structure shown.

How the values were obtained:
Typhlodromus pyri = test: LR50; higher = less toxic; details: chronic/long-term; duration: 7 days; mortality
Lepomis macrochirus = details: acute; duration: 96 hours; mortality
Canidae = details: oral, Dog Other, body weight
Colinus virginianus = details: reproduction developmental
Bibionidae = details: chronic/long-term; duration: 26 days; development
Daphnia magna = details: chronic/long-term; duration: 21 days; other
Mus musculus = details: acute; oral; mortality
Anas platyrhynchos = details: short-term; oral; feed; mortality
Apis mellifera = details: acute; duration: 48 hours; oral; unspecified; mortality
Pimephales promelas = details: chronic/long-term; duration: 33 days; other
Perdix sp. = details: acute; oral; unspecified; mortality

OC(Cn1cncn1)(c1ccc(F)cc1)c1ccccc1F (configuration not stated) [Flutriafol]
LR50 (Typhlodromus pyri): 204 g/ha
LC50 (Lepomis macrochirus): 33 µg/mL (≈ 110 µM)
NOAEL (Canidae; chronic, duration: 1 years): 5 mg/kg-day
NOAEL (Canidae; subchronic, duration: 90 days): 5 mg/kg-day
NOEC (Colinus virginianus): 35.8 mg/kg-day
NOEC (Bibionidae): 1.6 mg/L
NOEC (Daphnia magna): 0.31 mg/L
LC50 (Tagia sp.; acute, duration: 14 days, mortality): > 1000 mg/kg
NOEC (Tagia sp.; chronic/long-term, duration: 56 days): 12.2 mg/kg
LD50 (Mus musculus): 179 mg/kg
LC50 (Anas platyrhynchos): 435 mg/kg-day
LD50 (Apis mellifera): > 2 µg/piece
NOEC (Pimephales promelas): 4.8 mg/L
NOAEL (Rattus norvegicus; chronic, duration: 2 years, organ weight): 1 mg/kg-day
NOAEL (Rattus norvegicus; reproduction developmental, reproduction): 13.5 mg/kg-day
LD50 (Perdix sp.): 616 mg/kg

NC(Cc1ncn[nH]1)C(=O)O (configuration not stated) [1,2,4-Triazole-3-alanine]
NOAEL (Rattus norvegicus; subchronic, duration: 90 days): 90 mg/kg-day
